Data on 16 compounds can be found in patent US20250353844A1, “TETRAHYDROPYRIDO 3,4-D PYRIMIDINE DERIVATIVES AS KRAS INHIBITORS” (Bristol-Myers Squibb Company, priority 2022, published 2025).

Sequence of Recombinant GMPPNP-loaded KRAS G12C (KRAS-G12C(ON)) / GST-RAF1 RBD (P01116 1-188 isoform P01116-2 G12C): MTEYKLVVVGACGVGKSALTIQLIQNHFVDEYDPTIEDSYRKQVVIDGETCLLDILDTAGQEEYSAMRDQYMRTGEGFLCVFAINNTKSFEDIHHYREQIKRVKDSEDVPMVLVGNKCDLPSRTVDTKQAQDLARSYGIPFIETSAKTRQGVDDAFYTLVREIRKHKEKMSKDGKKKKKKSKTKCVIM

This experiment has as its target Recombinant GMPPNP-loaded KRAS G12C (KRAS-G12C(ON)) / GST-RAF1 RBD (Homo sapiens, UniProt P01116, G12C). As to the kind of experiment: KRAS G12C RAF Disruption Assay (HTRF). The conditions noted are these: GMPPNP-loaded KRAS G12C 5 nM, compound 20 min at room temperature, GST-RAF1 RBD 9 nM, HTRF signal; read-out: KRASG12C RAF Disruption Assay (IC50). It is filed as biochemical. On the procedure:
Recombinant GST-RAF1 RBD (9 nM) was added, and the reaction mixture was incubated for 20 minutes. SA-Tb (0.25 nM) was added, and the reaction mixture was incubated for 3 hours. HTRF signal was measured (PerkinElmer Envision), the signal ratio (λem 520/λem 495) was calculated, and IC50 values were calculated from the dose-response curve.
On the technique in general: TR-FRET usually uses a lanthanide donor and a delayed reading to cut background.
Take `CN1CCC[C@H]1COc1nc2c(c(N3CCN(C(=O)C(F)=Cc4ccns4)[C@@H](CC#N)C3)n1)CCN(c1cccc3cccc(Cl)c13)C2` (racemic) [Example 9, 2-((S)-4-(7-(8-chloronaphthalen-1-yl)-2-(((S)-1-methylpyrrolidin-2-yl)methoxy)-5,6,7,8-tetrahydropyrido[3,4-d]pyrimidin-4-yl)-1-(2-fluoro-3-(isothiazol-5-yl)acryloyl)piperazin-2-yl)acetonitrile]: the IC50 was 57000 nM.

Regarding `CN1CCC[C@H]1COc1nc2c(c(N3CCN(C(=O)/C(F)=C/c4cccnc4)[C@@H](CC#N)C3)n1)CCN(c1cccc3cccc(Cl)c13)C2` [Example 2, 2-((S)-4-(7-(8-chloronaphthalen-1-yl)-2-(((S)-1-methylpyrrolidin-2-yl)methoxy)-5,6,7,8-tetrahydropyrido[3,4-d]pyrimidin-4-yl)-1-((Z)-2-fluoro-3-(pyridin-3-yl)acryloyl)piperazin-2-yl)acetonitrile], the IC50 stood at 40300 nM.

Turning to `CN1CCC[C@H]1COc1nc2c(c(N3CCN(C(=O)/C(F)=C/c4ccncc4)[C@@H](CC#N)C3)n1)CCN(c1cccc3cccc(Cl)c13)C2` [Example 3, 2-((S)-4-(7-(8-chloronaphthalen-1-yl)-2-(((S)-1-methylpyrrolidin-2-yl)methoxy)-5,6,7,8-tetrahydropyrido[3,4-d]pyrimidin-4-yl)-1-((Z)-2-fluoro-3-(pyridin-4-yl)acryloyl)piperazin-2-yl)acetonitrile], the IC50 worked out at 329 nM.

Consider `CN1CCC[C@H]1COc1nc2c(c(N3CCN(C(=O)/C(F)=C/c4ncccn4)[C@@H](CC#N)C3)n1)CCN(c1cccc3cccc(Cl)c13)C2` [Example 4, 2-((S)-4-(7-(8-chloronaphthalen-1-yl)-2-(((S)-1-methylpyrrolidin-2-yl)methoxy)-5,6,7,8-tetrahydropyrido[3,4-d]pyrimidin-4-yl)-1-((Z)-2-fluoro-3-(pyrimidin-2-yl)acryloyl)piperazin-2-yl)acetonitrile], for which the IC50 was found to be 103 nM.

On to `CN1CCC[C@H]1COc1nc2c(c(N3CCN(C(=O)/C(F)=C/c4ncco4)[C@@H](CC#N)C3)n1)CCN(c1cccc3cccc(Cl)c13)C2` [Example 6, 2-((S)-4-(7-(8-chloronaphthalen-1-yl)-2-(((S)-1-methylpyrrolidin-2-yl)methoxy)-5,6,7,8-tetrahydropyrido[3,4-d]pyrimidin-4-yl)-1-((Z)-2-fluoro-3-(oxazol-2-yl)acryloyl)piperazin-2-yl)acetonitrile], for which the IC50 worked out at 89 nM.

For the compound `N#CC[C@H]1CN(c2nc(OC[C@@]34CCCN3C[C@H](F)C4)nc3c2CCN(c2cccc4cccc(Cl)c24)C3)CCN1C(=O)/C(F)=C/c1ccccn1` [Example 7, 2-((S)-4-(7-(8-chloronaphthalen-1-yl)-2 (((2R,7aS)-2-fluorotetrahydro-1H-pyrrolizin-7a(5H)-yl)methoxy)-5,6,7,8-tetrahydropyrido[3,4-d]pyrimidin-4-yl)-1-((Z)-2-fluoro-3-(pyridin-2-yl)acryloyl)piperazin-2-yl)acetonitrile], the IC50 was determined as 74 nM.

Take `N#CC[C@H]1CN(c2nc(OC[C@@]34CCCN3C[C@H](F)C4)nc3c2CCN(c2cccc4cccc(Cl)c24)C3)CCN1C(=O)/C(F)=C/c1nccs1` [Example 8, 2-((S)-4-(7-(8-chloronaphthalen-1-yl)-2 (((2R,7aS)-2-fluorotetrahydro-1H-pyrrolizin-7a(5H)-yl)methoxy)-5,6,7,8-tetrahydropyrido[3,4-d]pyrimidin-4-yl)-1-((Z)-2-fluoro-3-(thiazol-2-yl)acryloyl)piperazin-2-yl)acetonitrile]: the IC50 stood at 55 nM.

In the case of `CN1CCC[C@H]1COc1nc2c(c(N3CCN(C(=O)/C(F)=C/c4nccn4C)[C@@H](CC#N)C3)n1)CCN(c1cccc3cccc(Cl)c13)C2` [Example 10, 2-((S)-4-(7-(8-chloronaphthalen-1-yl)-2-(((S)-1-methylpyrrolidin-2-yl)methoxy)-5,6,7,8-tetrahydropyrido[3,4-d]pyrimidin-4-yl)-1-((Z)-2-fluoro-3-(1-methyl-1H-imidazol-2-yl)acryloyl)piperazin-2-yl)acetonitrile], the IC50 stood at 24000 nM.

With `Cc1cccc(/C=C(\F)C(=O)N2CCN(c3nc(OC[C@@H]4CCCN4C)nc4c3CCN(c3cccc5cccc(Cl)c35)C4)C[C@@H]2CC#N)n1` [Example 11, 2-((S)-4-(7-(8-chloronaphthalen-1-yl)-2-(((S)-1-methylpyrrolidin-2-yl)methoxy)-5,6,7,8-tetrahydropyrido[3,4-d]pyrimidin-4-yl)-1-((Z)-2-fluoro-3-(6-methylpyridin-2-yl)acryloyl)piperazin-2-yl)acetonitrile], the IC50 turned out to be 144 nM.

With `Cc1ccnc(/C=C(\F)C(=O)N2CCN(c3nc(OC[C@@H]4CCCN4C)nc4c3CCN(c3cccc5cccc(Cl)c35)C4)C[C@@H]2CC#N)c1` [Example 12, 2-((S)-4-(7-(8-chloronaphthalen-1-yl)-2-(((S)-1-methylpyrrolidin-2-yl)methoxy)-5,6,7,8-tetrahydropyrido[3,4-d]pyrimidin-4-yl)-1-((Z)-2-fluoro-3-(4-methylpyridin-2-yl)acryloyl)piperazin-2-yl)acetonitrile], the IC50 was 129 nM.

As to `Cc1ccc(/C=C(\F)C(=O)N2CCN(c3nc(OC[C@@H]4CCCN4C)nc4c3CCN(c3cccc5cccc(Cl)c35)C4)C[C@@H]2CC#N)nc1` [Example 13, 2-((S)-4-(7-(8-chloronaphthalen-1-yl)-2-(((S)-1-methylpyrrolidin-2-yl)methoxy)-5,6,7,8-tetrahydropyrido[3,4-d]pyrimidin-4-yl)-1-((Z)-2-fluoro-3-(5-methylpyridin-2-yl)acryloyl)piperazin-2-yl)acetonitrile], the IC50 worked out at 192 nM.

As for `Cc1cccnc1/C=C(\F)C(=O)N1CCN(c2nc(OC[C@@H]3CCCN3C)nc3c2CCN(c2cccc4cccc(Cl)c24)C3)C[C@@H]1CC#N` [Example 14, 2-((S)-4-(7-(8-chloronaphthalen-1-yl)-2-(((S)-1-methylpyrrolidin-2-yl)methoxy)-5,6,7,8-tetrahydropyrido[3,4-d]pyrimidin-4-yl)-1-((Z)-2-fluoro-3-(3-methylpyridin-2-yl)acryloyl)piperazin-2-yl)acetonitrile], the IC50 is 778 nM.

Turning to `C[C@H]1CN(C(=O)/C(F)=C/c2nccs2)CCN1c1nc(OC[C@@H]2CCCN2C)nc2c1CCN(c1cccc3cccc(Cl)c13)C2` [Example 15, (Z)-1-((S)-4-(7-(8-chloronaphthalen-1-yl)-2-(((S)-1-methylpyrrolidin-2-yl)methoxy)-5,6,7,8-tetrahydropyrido[3,4-d]pyrimidin-4-yl)-3-methylpiperazin-1-yl)-2-fluoro-3-(thiazol-2-yl)prop-2-en-1-one], the IC50 came out at 7500 nM.

With `CN1CCC[C@H]1COc1nc2c(c(N3CCN(C(=O)/C(F)=C/c4ccon4)[C@@H](CC#N)C3)n1)CCN(c1cccc3cccc(Cl)c13)C2` [Example 16, 2-((S)-4-(7-(8-chloronaphthalen-1-yl)-2-(((S)-1-methylpyrrolidin-2-yl)methoxy)-5,6,7,8-tetrahydropyrido[3,4-d]pyrimidin-4-yl)-1-((Z)-2-fluoro-3-(isoxazol-3-yl)acryloyl)piperazin-2-yl)acetonitrile], the IC50 stood at 63700 nM.

As to `CN1CCC[C@H]1COc1nc2c(c(N3CCN(C(=O)/C(F)=C/c4ccno4)[C@@H](CC#N)C3)n1)CCN(c1cccc3cccc(Cl)c13)C2` [Example 17], the IC50 amounted to 10500 nM.

Turning to `CN1CCC[C@H]1COc1nc2c(c(N3CCN(C(=O)/C(F)=C/c4cn(C)nn4)[C@@H](CC#N)C3)n1)CCN(c1cccc3cccc(Cl)c13)C2` [Example 18], the IC50 was found to be 92600 nM.

Broadly, the IC50 is the concentration needed to halve the response being measured.
